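Values below derive from 48-hour exposures of cells grown in 96-well plates, with endpoints linearly interpolated between the two concentrations bracketing the appropriate inhibition level. The concentration for 50% growth inhibition is given as GI50.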 Active and inactive are the calls of the source. Cut-off read from the data, not from the text of the source: active = GI50 up to about 1.1 µM and inactive = higher.
Legend:
Assay in all cases: NCI anticancer screen, dose series, 48 h
BT-549 = system: BT-549
M14 = system: M14
U-251 = system: U-251
SK-MEL-2 = system: SK-MEL-2
CAKI-1 = system: CAKI-1
HL-60 = system: HL-60
SW-620 = system: SW-620
KM12 = system: KM12
EKVX = system: EKVX
UACC-62 = system: UACC-62
PC-3 = system: PC-3
OVCAR-4 = system: OVCAR-4
SK-OV-3 = system: SK-OV-3
UO-31 = system: UO-31
SF-295 = system: SF-295
SR = system: SR
HT-29 = system: HT-29
HOP-92 = system: HOP-92

Measured: GI50

COc1cc(CCCOC(=O)/C=C/c2ccc(O)c(O)c2)cc(O)c1O
inactive: BT-549 30.7 µM | M14 > 100 µM | U-251 36.8 µM | SK-MEL-2 83.2 µM | CAKI-1 58.3 µM | HL-60 25.5 µM | SW-620 18.8 µM | KM12 44.2 µM | EKVX > 100 µM | UACC-62 27.9 µM | PC-3 32.4 µM | OVCAR-4 40 µM | SK-OV-3 > 100 µM | UO-31 37.5 µM | SF-295 35.1 µM | SR 43.6 µM | HT-29 31.6 µM

Fc1cccc(Cl)c1C1SCc2nc3cc4ccccc4cc3n21 (stereo not given)
inactive: BT-549 > 100 µM | M14 > 100 µM | U-251 > 100 µM | SK-MEL-2 > 100 µM | CAKI-1 99.1 µM | SW-620 > 100 µM | KM12 > 100 µM | EKVX > 100 µM | UACC-62 43.6 µM | PC-3 > 100 µM | OVCAR-4 28.9 µM | SK-OV-3 37 µM | SF-295 62.7 µM | SR 8.32 µM | HT-29 89.1 µM | HOP-92 19.6 µM

COc1cccc(C2c3cc4c(cc3OC(N3CCCCC3)C2C)OCO4)c1OC (stereo not given)
inactive: BT-549 9.06 µM | M14 12.7 µM | U-251 4.58 µM | SK-MEL-2 5.96 µM | CAKI-1 2.58 µM | SW-620 3.93 µM | KM12 6.32 µM | EKVX 13.7 µM | UACC-62 12.9 µM | PC-3 5.58 µM | SK-OV-3 12.4 µM | UO-31 7.05 µM | SF-295 4.27 µM | SR 1.24 µM | HT-29 4.58 µM | HOP-92 5.4 µM

COC(=O)C1=COC(C)C2C[n+]3ccc4c([nH]c5ccccc54)c3CC12 (stereo not given)
inactive: BT-549 > 100 µM | M14 > 100 µM | U-251 > 100 µM | SK-MEL-2 > 100 µM | CAKI-1 > 100 µM | HL-60 > 100 µM | SW-620 > 100 µM | KM12 > 100 µM | EKVX > 100 µM | UACC-62 > 100 µM | PC-3 > 100 µM | OVCAR-4 81.7 µM | SK-OV-3 > 100 µM | UO-31 > 100 µM | SF-295 > 100 µM | HT-29 > 100 µM | HOP-92 > 100 µM

COc1ccc(CCN2CCN(CCc3ccc(OC)cc3)CC2)cc1
inactive: BT-549 > 100 µM | M14 > 100 µM | U-251 > 100 µM | SK-MEL-2 > 100 µM | CAKI-1 > 100 µM | HL-60 > 100 µM | SW-620 > 100 µM | KM12 > 100 µM | EKVX > 100 µM | UACC-62 > 100 µM | PC-3 > 100 µM | OVCAR-4 > 100 µM | SK-OV-3 > 100 µM | UO-31 > 100 µM | SF-295 46.6 µM | HT-29 > 100 µM | HOP-92 > 100 µM

NC(=O)CC(N)C(N)=O (stereo not given)
inactive: BT-549 > 100 µM | M14 > 100 µM | U-251 > 100 µM | SK-MEL-2 > 100 µM | CAKI-1 > 100 µM | HL-60 > 100 µM | SW-620 > 100 µM | KM12 > 100 µM | UACC-62 > 100 µM | PC-3 > 100 µM | OVCAR-4 > 100 µM | SK-OV-3 > 100 µM | SF-295 > 100 µM | SR > 100 µM | HOP-92 > 100 µM

OCCN1CN(c2nc(N3CN(CCO)C3)nc(N3CN(CCO)C3)n2)C1
inactive: BT-549 32.6 µM | M14 17.5 µM | U-251 22.6 µM | SK-MEL-2 18.7 µM | CAKI-1 22.5 µM | HL-60 16 µM | SW-620 30 µM | KM12 21.4 µM | EKVX 26.8 µM | UACC-62 14.5 µM | PC-3 22.1 µM | OVCAR-4 30.6 µM | UO-31 20 µM | SR 11.2 µM | HT-29 25.5 µM | HOP-92 19.9 µM

N#C[BH2-][n+]1ccc(C(=O)NNCc2ccc(F)cc2)cc1
inactive: BT-549 > 100 µM | M14 > 100 µM | U-251 > 100 µM | SK-MEL-2 > 100 µM | CAKI-1 > 100 µM | HL-60 > 100 µM | SW-620 > 100 µM | KM12 > 100 µM | EKVX > 100 µM | UACC-62 > 100 µM | PC-3 > 100 µM | OVCAR-4 64.1 µM | UO-31 59.7 µM | SF-295 > 100 µM | SR > 100 µM | HOP-92 > 100 µM

Reference: ChEMBL document CHEMBL1201862, “PubChem BioAssay data set” (2004)
